From patent publication US5686494A, “Pharmaceutical preparations for ameliorating epigastric functional disorders” (Daiichi Pharmaceutical Co., Ltd., priority 1993, dated 1997)
Values joined by “and” are separate entries in the source; they are usually repeats but may differ in a detail not shown here. Equal values may be shown once. Ends that are not written are not given here. * marks the point of attachment. SO3H = O=S(=O)(O)*

Key:
[1] = system: cholecystokinin (CCK)-induced delayed gastric emptying model; experiment: Effect on gastric emptying in cholecystokinin (CCK)-induced delayed gastric emptying model (Phenol red method); assay type: in vivo, male Slc:ddY mice; conditions: for Gastric emptying rate (%): 90 min before phenol red, CCK 5 μg/kg i.p. 5 min before, measured 30 min after phenol red
Description: Effect on gastric emptying in cholecystokinin (CCK)-induced delayed gastric emptying model (Phenol red method)
After overnight fasting, male Slc:ddY mice of 6 to 7 weeks of age (body weight, 20 to 30 g; SLC, Shizuoka, Japan) were divided into six groups: a group in which cholecystokinin was administered with no drug treatment (No. 1 in Table 1), groups in which cholecystokinin was administered after administration of compound A (Nos. 2 to 4), a group in which cholecystokinin was administered after administration of cisapride as a positive control (No. 5) and a group in which cholecystokinin and drug treatments were not made (No. 6). Five to 15 mice were used in each group.
First, 90 minutes before the administration of phenol red, 1 mg/kg, 3 mg/kg or 10 mg/kg of compound A suspended in 0.5% carboxymethylcellulose was orally administered to mice of the compound A administration groups, respectively, (Nos. 2 to 4), 3 mg/kg of cisapride suspended in 0.5% carboxymethylcellulose was orally administered to mice as the positive control drug administration group (No. 5) and 0.5% carboxymethylcellulose was orally administered to mice of the […] (No. 1) and the no drug and no cholecystokinin treatment group (No. 6). Next, 5 minutes before the phenol red administration, 5 μg/kg of cholecystokinin (CCK8s, manufactured by Sigma) which had been dissolved in distilled water and then diluted with physiological saline was intraperitoneally administered to mice of each group. Thereafter, phenol red dissolved in 1% methylcellulose was orally administered with a dose of 0.2 mg/0.3 ml/mouse. After 30 minutes of the phenol red administration, each mouse was sacrificed by cervical dislocation to excise the stomach, and the amount of phenol red remaining in the excised stomach was measured to calculate the gastric emptying rate (%) by the following formula.
Gastric emptying rate (%)=[1-(phenol red recovered from drug-applied
(X is the average value of the recovered phenol red remaining in the stomach excised from each mouse sacrificed just after the phenol red administration)

[2] = system: dopamine-induced delayed gastric emptying model; experiment: Effect on gastric emptying in dopamine-induced delayed gastric emptying model (phenol red method); assay type: in vivo, male Slc:ddY mice; conditions: for Gastric emptying rate (%): 90 min before phenol red, dopamine 30 mg/kg i.p. 5 min before, measured 30 min after phenol red
Description: Effect on gastric emptying in dopamine-induced delayed gastric emptying model (phenol red method) After overnight fasting, male Slc:ddY mice of 6 to 7 weeks of age (body weight, 28 to 32 g; SLC, Shizuoka, Japan) were divided into 7 groups, namely a group in which dopamine was administered with no drug treatment (No. 1 in Table 2), groups in which dopamine was administered after administration of the compound A (Nos. 2 to 5), a group in which dopamine was administered after administration of cisapride as a positive control (No. 6) and a group in which dopamine and drug treatments were not made (No. 7). Seven mice were used in each group. First, 90 minutes before the administration of phenol red, 0.01 mg/kg, 0.03 mg/kg, 0.1 mg/kg or 0.3 mg/kg of the compound A suspended in 0.5% carboxymethylcellulose was orally administered to mice of the compound A administration groups (Nos. 2 to 5), 3 mg/kg of cisapride suspended in 0.5% carboxymethylcellulose was orally administered to mice as the positive control drug administration group (No. 6) and 0.5% carboxymethylcellulose was orally administered to mice as the dopamine administration group with no drug treatment (No. 1) and the no drug and no dopamine treatment group (No. 7). Next, 5 minutes before the phenol red administration, 30 mg/kg of dopamine which has been dissolved in distilled water and then diluted with physiological saline was intraperitoneally administered to mice of each group. Thereafter, phenol red dissolved in 1% methylcellulose was orally administered with a dose of 0.2 mg/0.3 ml/mouse. […] mouse/X)]×100 (X is an average value of the recovered phenol red remained in the stomach excised from each mouse sacrificed just after the phenol red administration)

[3] = system: patients diagnosed as chronic gastritis and the like without morphological changes in the stomach; experiment: Effect on gastric emptying in patients (acetaminophen method); assay type: in vivo, human
Excerpt: (§1) Effects on subjective symptoms and gastric emptying in patients
(§2) A total of 8 patients diagnosed as chronic gastritis and the like without morphological changes in the stomach were examined in this test, each patient complaining of medium or more intense chronic epigastric fullness, having other NUD (or epigastric dysfunction complaints) such as gastric oppression, nausea, vomiting, anorexia, heartburn and the like and also showing delayed gastric emptying.
(§3) Each patient was allowed to take 2 tablets of the test pharmaceutical preparation of Example 1 three times a day 15 to 30 minutes before morning, noon and evening meals (600 mg of compound A/day), and the administration was continued for 2 weeks. Subjective symptoms (Table 3) were checked before and 2 weeks after the administration and gastric emptying (Table 4) was checked before and 2 weeks after the administration.
Gastric emptying was examined in accordance with the acetaminophen method of Heading et al (cf. Br. J. Pharmacol. 47 415-421 (1973)). That is, each patient after overnight fasting with no drug administration was allowed to take a test food (200 ml of a liquid natural food OKUNOS-A, thoroughly mixed with 1.5 g of acetaminophen) at 9 a.m. and then to take a seat without eating and drinking until completion of the examination. Heparinized blood samples were collected before and 45 minutes after the administration. Thereafter, serum was separated from each sample to measure serum acetaminophen concentration by a high performance liquid chromatography (HPLC).

[4] = system: patients diagnosed as chronic gastritis and the like without morphological changes in the stomach; experiment: Effects on subjective symptoms in patients; assay type: in vivo, human
Excerpt: as §1, §2, §3
Subjective symptoms were examined by checking existence of the symptoms before and 2 weeks after the administration.

[5] = 2 tablets of Example 1 three times a day (600 mg of compound A/day), 2 weeks

Compound: COc1cc(N)c(Cl)cc1C(=O)NC1CCN(CCCOc2ccc(F)cc2)CC1OC (stereo not drawn) [Cisapride, cisapride, reference compound]
- Gastric emptying rate (%) ([1]; positive control, 3 mg/kg oral): 36.7 ± 6.8%
- Gastric emptying rate (%) ([2]; 3 mg/kg oral): 23.4 ± 6.6%

Compound: CNC(=O)c1cccc(NCC(=O)NCCc2ccc(OC)c(OC)c2)c1 [Compound A, 3-[[[2-(3,4-dimethoxyphenyl)ethyl]carbamoyl]methyl]amino-N-methylbenzamide]
- Serum acetaminophen concentration, After administration ([3]; 2 weeks after start, 600 mg of compound A/day oral, individual patients No. 1 to 8 in order, 45 minutes after 1.5 g acetaminophen in test food): 7.6 µg/mL and 10.1 µg/mL and 12.8 µg/mL and 7.8 µg/mL and 7.3 µg/mL and 8.1 µg/mL and 8.5 µg/mL and 7.1 µg/mL
- amelioration of gastric emptying (cases) ([3]; 2 weeks, 600 mg of compound A/day oral): 7 of the 8
- Serum acetaminophen concentration, Before administration ([3]; baseline before drug administration, individual patients No. 1 to 8 in order, 45 minutes after 1.5 g acetaminophen in test food): 7.6 µg/mL and 8.4 µg/mL and 8.0 µg/mL and 6.1 µg/mL and 6.9 µg/mL and 6.6 µg/mL and 5.2 µg/mL and 4.6 µg/mL
- Symptom-disappeared cases/tested cases: Abdominal distension [4, 5]: 7/7
- Symptom-disappeared cases/tested cases: Anorexia [4, 5]: 3/3
- Symptom-disappeared cases/tested cases: Epigastralgia [4, 5]: 4/4
- Symptom-disappeared cases/tested cases: Gastric disphoria [4, 5]: 4/4
- Symptom-disappeared cases/tested cases: Heartburn [4, 5]: 2/2
- Symptom-disappeared cases/tested cases: Nausea [4, 5]: 4/4
- Symptom-disappeared cases/tested cases: Vomiting [4, 5]: 3/3
- disappearance of subjective symptoms ([4]; patients No. 1 to No. 8, after 2 weeks, 600 mg/day oral): complete disappearance of subjective symptoms
- Gastric emptying rate (%) ([1]; 1 mg/kg oral): 24.8 ± 2.1%
- gastric emptying rate improved ([1]; 1 mg/kg, 3 mg/kg or 10 mg/kg oral, vs CCK-treated mice with reduced gastric emptying rate): improved in a dose dependent fashion
- Gastric emptying rate (%) ([1]; 3 mg/kg oral): 27.6 ± 4.2%
- Gastric emptying rate (%) ([1]; 10 mg/kg oral): 40.5 ± 6.9%
- Gastric emptying rate (%) ([2]; 0.01 mg/kg oral): 6.9 ± 4.7%
- gastric emptying rate improved ([2]; 0.01 mg/kg, 0.03 mg/kg, 0.1 mg/kg or 0.3 mg/kg oral, vs dopamine-treated mice with reduced gastric emptying rate): improved
- Gastric emptying rate (%) ([2]; 0.03 mg/kg oral): 21.2 ± 6.1%
- Gastric emptying rate (%) ([2]; 0.1 mg/kg oral): 18.1 ± 8.3%
- Gastric emptying rate (%) ([2]; 0.3 mg/kg oral): 36.2 ± 10.2%

Compound: cholecystokinin (DY(SO3H)MGWMDF; not fully specified (C-terminus); ends and bridges not checked; UniProt P06307 96-103, looked up) [cholecystokinin (CCK8s, manufactured by Sigma), reference compound]
- gastric emptying rate reduced to (fraction) ([1]; 5 μg/kg cholecystokinin intraperitoneal, no drug): 1/3

Compound: NCCc1ccc(O)c(O)c1 [dopamine, reference compound]
- gastric emptying rate reduced to (fraction) ([2]; 30 mg/kg dopamine intraperitoneal, no drug): 1/20
